PMC9890180, “Structural diversity-guided optimization of carbazole derivatives as potential cytotoxic agents” (Frontiers in Chemistry, 2023)
Like-named read-outs stand apart in the source and are kept apart here.

Experiments:
[1] = system: 7901 (human gastric adenocarcinoma cells); experiment: In vitro cytotoxicity MTT assay, 7901 cells; conditions: for IC50 / inhibition at 40 µg/mL: Homo sapiens; for inhibition at 40 µg/mL: read-out: in vitro inhibition rate on 7901
Description: (§1) The in vitro cytotoxicity of these carbazole derivatives against human melanoma (A875), human gastric adenocarcinoma cells (7901), and a subclone of African green monkey kidney cell line MA-104 (MARC145) cell lines was evaluated using the MTT assay. Briefly, A875, 7901, and MARC145 cells were seeded at 2 × 10^4 cells per well in 96-well plates and grown to subconfluence. After removal of the growth medium, six serial dilutions of each tested compound in 200 µL test medium were added. Plates were incubated at 37°C in a humidified atmosphere containing 5% CO2. After 72 h of exposure, the culture medium was removed and 30 µL of the MTT solution (5 mg/mL in PBS) was added to each well. The plate was further incubated for 4 h to allow MTT formazan formation. To dissolve the resulting MTT formazan, 50 µL of DMSO was added to each well, followed by thorough mixing with a microplate shaker. Absorbance at 570 nm was measured on a microplate reader (Thermo Scientific, MK3). All data were analyzed with SPSS software, and the 50% inhibitory concentrations (IC50) of each compound for the different cell lines were determined. All assays were performed in triplicate on three independent experiments.

[2] = system: A875 (human melanoma)
Description: as §1

[3] = system: 7901 (human gastric adenocarcinoma cells)
Description: as §1

[4] = system: MARC145 (a subclone of African green monkey kidney cell line MA-104)
Description: as §1

[5] = system: A875 (human melanoma); experiment: In vitro cytotoxicity MTT assay, A875 cells; conditions: for IC50 / inhibition at 40 µg/mL: Homo sapiens; for inhibition at 40 µg/mL: A875, read-out: in vitro inhibition rate on A875
Description: as §1

[6] = system: 7901, A875 and MARC145 cell lines; experiment: In vitro cytotoxicity MTT assay, overall rating over the tested cell lines; type: cell-based
Description: The relationship between concentration and inhibition rate is the key to whether a potential compound can be use as potential medicinal agents. It is very important to maintain good activity at low concentration. Based on the preliminary screening data, in order to verify the effect of concentration on the potential cytotoxic activities for all compounds, the inhibition activity data of the compounds at different concentrations were detected using the same method. All experiments were carried out on three kinds of cell lines with six concentrations of 40, 20, 10, 5, 1, and 0.5 μg/mL. The inhibition activities for highly potential compounds 7b, 11a, 11b, 14a, and 14b were described in Figure 4.

[7] = In vitro cytotoxicity MTT assay, MARC145 cells; conditions: African green monkey, MARC145 cells (subclone of kidney cell line MA-104)
Description: as §1

[8] = system: MARC145 (a subclone of African green monkey kidney cell line MA-104); experiment: In vitro cytotoxicity MTT assay, MARC145 cells; conditions: preliminary screening, 40 μg/mL
Description: as §1

[9] = system: A875 (human melanoma); design: method as in Huang et al., 2021; conditions: previous work; ref Huang et al., 2021; read-out: IC50 against A875; cited from earlier work
[10] = system: MARC145 (a subclone of African green monkey kidney cell line MA-104); design: method as in Huang et al., 2021; conditions: previous work; ref Huang et al., 2021; cited from earlier work
[11] = 72 h, read-out: In vitro cytotoxicity IC50, 7901
[12] = A875, 72 h, read-out: In vitro cytotoxicity IC50, A875
[13] = A875, read-out: A875 IC50 (Figure 5)

| Molecule | melting point | Inhibitory activity on tested cells, in words [6] | IC50 [1, 11] | IC50 at 72 h [7] | IC50 [5, 12] | further results |
| --- | --- | --- | --- | --- | --- | --- |
| 2-(6-Chloro-9H-carbazol-2-yl)-N-(2-((dimethylphosphoryl)amino)phenyl)propanamide [Compound 11b] | – | good inhibition activities on all tested cells | – | – | – | in vitro inhibition rate on 7901 ([1]; concentration of 40 μg/mL): > 70%; IC50 [2]: 33.6 ± 9.48 µM; IC50 [3]: 20.6 ± 3.3 µM; IC50 [4]: 17.3 ± 7.25 µM; in vitro inhibition rate on A875 ([5]; concentration of 40 μg/mL): > 70% |
| O=c1[nH]cc(F)c(=O)[nH]1 [Compound 5-FU, 5-fluorouracil, reference compound] | – | – | 63.5 ± 4.92 µM | 86.3 ± 8.3 µM | 80.1 ± 6.61 µM | – |
| Cc1c(C(=O)Nc2ccc(S(=O)(=O)Nc3ccccc3Oc3ccccc3)cc2)ccc2c1[nH]c1ccccc12 [Compound 7a, 1-Methyl-N-(4-(N-(2-phenoxyphenyl)sulfamoyl)phenyl)-9H-carbazole-2-carboxamide] | 78 °C | – | 64.7 ± 15.1 µM | 51.5 ± 9.24 µM | 33.5 ± 1.63 µM | – |
| Cc1c(C(=O)Nc2ccc(S(=O)(=O)Nc3ccc(Cl)nc3)cc2)ccc2c1[nH]c1ccccc12 [Compound 7b, N-(4-(N-(6-Chloropyridin-3-yl)sulfamoyl)phenyl)-1-methyl-9H-carbazole-2-carboxamide] | 93 °C | moderate inhibitory activity | 58.1 ± 11.3 µM | 58.9 ± 16.7 µM | 23 ± 16.9 µM | inhibition at 40 µg/mL [1]: > 70%; Toxicity to normal cells MARC-145 compared with cancer cells, in words [8]: less toxicity to normal cells MARC-145 than cancer cells; inhibition at 40 µg/mL [5]: > 70% |
| Cc1c(C(=O)NN(C(=O)c2ccccc2)C(C)(C)C)ccc2c1[nH]c1ccccc12 [Compound 7c, N'-Benzoyl-N'-(tert-butyl)-1-methyl-9H-carbazole-2-carbohydrazide] | 212 °C | – | – | 58.4 ± 31.6 µM | > 40 µM | – |
| COc1cccc(C=NNC(=O)C(C)c2ccc3c(c2)[nH]c2ccc(Cl)cc23)c1O (stereo not drawn) [Compound 14a, 2-(6-Chloro-9H-carbazol-2-yl)-N'-(2-hydroxy-3-methoxybenzylidene)propanehydrazide] | 217 °C | good inhibition activities on all tested cells | 11.8 ± 1.26 µM | 7.47 ± 4.15 µM | 9.77 ± 8.32 µM | inhibition at 40 µg/mL [1]: > 70%; Toxicity to normal cells MARC-145 compared with cancer cells, in words [8]: less toxicity to normal cells MARC-145 than cancer cells; IC50 [5, 13]: 9.77 ± 8.33 µM; inhibition at 40 µg/mL [5]: > 70%; Inhibition activity at low concentration, in words ([6]; concentration of 5 μg/mL): good activity |
| CC(C(=O)NN=CC=Cc1ccc(Cl)cc1)c1ccc2c(c1)[nH]c1ccc(Cl)cc12 (stereo not drawn) [Compound 14b, 2-(6-Chloro-9H-carbazol-2-yl)-N'-(3-(4-chlorophenyl)allylidene)propanehydrazide] | 186 °C | good inhibition activities on all tested cells | 18.9 ± 2.64 µM | 19.6 ± 6.94 µM | 45.6 ± 30.6 µM | inhibition at 40 µg/mL [1]: > 70%; inhibition at 40 µg/mL [5]: > 70% |
| CC(C(=O)NN=Cc1ccc2c(c1)OCO2)c1ccc2c(c1)[nH]c1ccc(Cl)cc12 (stereo not drawn) [Compound 14c, N'-(Benzo[d][1,3]dioxol-5-ylmethylene)-2-(6-chloro-9H-carbazol-2-yl)propanehydrazide] | 240 °C | – | – | > 40 µM | > 40 µM | – |
| CC(C(=O)NN=Cc1ccc(Cl)cc1)c1ccc2c(c1)[nH]c1ccc(Cl)cc12 (stereo not drawn) [Compound 14f, 2-(6-Chloro-9H-carbazol-2-yl)-N'-(4-chlorobenzylidene)propanehydrazide] | 218 °C | – | – | > 40 µM | > 40 µM | IC50 ([1]; read-out: 7901 IC50 (Figure 5)): > 100 µM; IC50 [5, 13]: > 100 µM |
| CC(C(=O)NN=Cc1ccc(Cl)cc1Cl)c1ccc2c(c1)[nH]c1ccc(Cl)cc12 (stereo not drawn) [Compound 14g, 2-(6-Chloro-9H-carbazol-2-yl)-N'-(2,4-dichlorobenzylidene)propanehydrazide] | 241 °C | – | 38.8 ± 2.74 µM | 96.3 ± 63.3 µM | > 40 µM | – |
| COc1cccc(/C=N/NC(=O)c2ccc3c([nH]c4ccccc43)c2C)c1O [Compound 2021-7e] | – | – | – | – | – | IC50 [9]: 4.15 µM; IC50 [10]: 26.6 µM |

Continued, in another order:

| melting point | Molecule | Inhibitory activity on tested cells, in words [6] | IC50 [1, 11] | IC50 at 72 h [7] | IC50 [5, 12] | further results |
| --- | --- | --- | --- | --- | --- | --- |
| 97 °C | Cc1ccc(S(=O)(=O)N(NC(=O)c2ccc3c([nH]c4ccccc43)c2C)C(C)(C)C)cc1 [Compound 7d, N-(tert-Butyl)-4-methyl-N'-(1-methyl-9H-carbazole-2-carbonyl)benzenesulfonohydrazide] | decreases significantly | 34.5 ± 9.9 µM | 18.7 ± 4.16 µM | > 40 µM | – |
| 153 °C | Cc1c(C(=O)NCC(=O)c2ccccc2)ccc2c1[nH]c1ccccc12 [Compound 7e, 1-Methyl-N-(2-oxo-2-phenylethyl)-9H-carbazole-2-carboxamide] | – | – | 62.6 ± 28.2 µM | > 40 µM | – |
| 163 °C | CC(C(=O)Nc1ccccc1NS(C)(=O)=O)c1ccc2c(c1)[nH]c1ccc(Cl)cc12 (stereo not drawn) [Compound 11a, 2-(6-Chloro-9H-carbazol-2-yl)-N-(2-(methylsulfonamido)phenyl)propanamide] | good inhibition activities on all tested cells | 21.9 ± 3.05 µM | 22.9 ± 14.3 µM | 36.7 ± 2.96 µM | inhibition at 40 µg/mL [1]: > 70%; Toxicity to normal cells MARC-145 compared with cancer cells, in words [8]: less toxicity to normal cells MARC-145 than cancer cells; inhibition at 40 µg/mL [5]: > 70% |
| 188 °C | Cc1ccc(NNC(=O)C(C)c2ccc3c(c2)[nH]c2ccc(Cl)cc23)cc1 (stereo not drawn) [Compound 11c, 2-(6-Chloro-9H-carbazol-2-yl)-N'-(p-tolyl)propanehydrazide] | – | – | 64 ± 20.1 µM | > 40 µM | – |
| 149 °C | CC(C(=O)NCCS(C)(=O)=O)c1ccc2c(c1)[nH]c1ccc(Cl)cc12 (stereo not drawn) [Compound 11d, 2-(6-Chloro-9H-carbazol-2-yl)-N-(2-(methylsulfonyl)ethyl)propanamide] | lost activity | – | > 40 µM | > 40 µM | – |
| 157 °C | CC(C(=O)Nc1ccc(S(=O)(=O)Nc2ncccn2)cc1)c1ccc2c(c1)[nH]c1ccc(Cl)cc12 (stereo not drawn) [Compound 11e, 2-(6-Chloro-9H-carbazol-2-yl)-N-(4-(N-(pyrimidin-2-yl)sulfamoyl)phenyl)propanamide] | – | – | > 40 µM | > 40 µM | – |
| 209 °C | CC(C(=O)NN=Cc1c[nH]c2ccccc12)c1ccc2c(c1)[nH]c1ccc(Cl)cc12 (stereo not drawn) [Compound 14d, N'-((1H-Indol-3-yl)methylene)-2-(6-chloro-9H-carbazol-2-yl)propanehydrazide] | – | – | 42.4 ± 4.58 µM | 37.6 ± 8.15 µM | – |
| 239 °C | COc1cc(C=NNC(=O)C(C)c2ccc3c(c2)[nH]c2ccc(Cl)cc23)ccc1O (stereo not drawn) [Compound 14e, 2-(6-Chloro-9H-carbazol-2-yl)-N'-(4-hydroxy-3-methoxybenzylidene)propanehydrazide] | almost lost its activity | – | > 40 µM | > 40 µM | IC50 ([1]; read-out: 7901 IC50 (Figure 5)): > 100 µM; IC50 [5, 13]: > 100 µM |
